Assay [1] deals with T1, HbS (Homo sapiens, UniProt P68871+P69905, E7V).
T1 construct: HbS was obtained from the blood of homozygous S/S patients; from tissue; host or cells: red blood cells of homozygous S/S patients
In words: 'R'-'T' assay (conversion of oxy HbS to deoxy HbS under deoxygenating conditions). It counts as biochemical. Conditions: 50% inhibition of HbS 'R'-'T' conversion; 3 uM HbS, <1% O2. On the procedure:
Conversion from oxy (R, relaxed state) to deoxy (T, tense state) HbS in the presence of compound was performed to determine the ability of compounds to stabilize the oxy (R) state under deoxygenating conditions. The assay run was similar to the ‘Oxygen dissociation assay’ described in Oksenberg et al, Br J Haematology, 2016, 175, 141-153.
Assay ready compound plates were prepared by first preparing a master serial dilution plate from a 30 mM initial compound stock in 100% DMSO. From this master serial dilution plate, 167 nL of the desired compound concentration was delivered to the assay ready plates using acoustical dispensing. Plates were frozen at −20° C. until needed. Purified HbS-O2 (i.e. oxy HbS) was diluted to 3 uM in 100 mM potassium phosphate buffer, pH=7.4. 50 uL of 3 uM stock solution was added to each well of the assay ready plate and mechanically mixed eight times. Following mixing the plates were covered and incubated at room temperature for one hour with moderate shaking. Following incubation, the plates were placed in a deoxygenated environment (<1% O2) for two hours, and the conversion to deoxy HbS monitored as a function of time. Oxygenated and deoxygenated forms of hemoglobin were detected using the absorbance of the Soret peaks at 415 and 430 nm respectively, and absorbance measurements (optical density, OD) were taken at 0, 90 and 120 minutes. Background absorbance for correction was collected at 700 nm.
Data were analyzed by first subtracting baseline absorbance at 700 nm from 415 nm and 430 nm data at each timepoint, and then taking the ratio of 415/430 nm data (Ratio=[(OD415−OD700)/(OD430−OD700)]. The effect at each timepoint was calculated using the ratios from the previous calculation at time 0 and each time point of interest (Effect^time x=Ratio^time x/Ratio^time 0). Percent effect was calculated by comparing the effects of compound versus HbS only with the effects observed by the positive control compound tucaresol (percent effect=[(effect^time x compound−effect^time x HbS)/(effect^time x tucaresol−effect^time x HbS)]×100). Data were reported as the percent effect for a single point. Calculations to determine the concentration of compound for 50% inhibition (IC50 (uM)) of the HbS ‘R’-‘T’ conversion were based on the percent effect at varying compound concentration.

The target in assay [2] is T2, purified sickle cell hemoglobin (HbS) (Homo sapiens, UniProt P68871+P69905, E7V).
T2 construct: HbS was obtained from the blood of homozygous S/S patients; from tissue; host or cells: red blood cells of homozygous S/S patients
Description: Binding affinity to purified HbS by Surface Plasmon Resonance (SPR). Conditions: crosslinked biotinylated HbS, 1:1 binding model. The protocol:
Binding Affinity, Kd (uM)
The binding affinity for compounds to purified sickle cell hemoglobin (HbS) was determined using Surface Plasmon Resonance (SPR). Patient Sickle Cell blood was obtained from Boston Children's Hospital in accordance with Institutional Review Board protocols. HbS was obtained from the blood of homozygous S/S patients, and purified using the method described in: Antonini and Brunori, Hemoglobin and Myoglobin in their Reactions with Ligands. Amsterdam, London, North-Holland Publishing Company, 1971. Whole blood was separated into red blood cell and plasma components by centrifugation, after which the plasma was decanted and discarded. Packed red blood cells were washed with normal saline (0.9% NaCl) and then lysed by 2:1 dilution with cold deionized water. The hemolysate was centrifuged to remove cellular debris, and further purified with the addition of Drabkin's Buffer (2.8 M potassium phosphate), and centrifugation with Celite®. Organic phosphates (2,3-BPG) were removed via gel filtration with Sephadex® G-25. HbS and wild-type hemoglobin, hemoglobin A (HbA), were separated by […], using diethylaminoethyl (DEAE)-Sepharose® fast flow, and eluted using a pH gradient from pH 8.5-pH 7.5. Purity of the resulting HbS and HbA was determined by native gel electrophoresis and HbS fractions used further.
To stabilize the tetrameric structure of hemoglobin, HbS was crosslinked between the beta subunits (Lys82-Lys82) using bis(3,5-dibromosalicyl) fumarate, as described in: Shibayama N. et al, J Am Chem Soc 2014, 136, 13, 5097-5105 and Shibayama N. et al, Biochemistry 1991, 39, 33, 8158-8165). Crosslinked HbS was subsequently biotynylated and captured on a custom made Streptavidin sensor to achieve protein density of 4000 to 5000 resonance units (RUs) on the surface. Compound binding to HbS using SPR was tested on Sierra Sensors MASS-1 instrument. The running buffer contained 100 mM Potassium Phosphate, pH 7.5, 0.005% Tween-20, 1 mM ethylenediaminetetraacetic acid (EDTA), 0.1 mg/mL bovine serum albumin with 1% DMSO. Compound samples were injected at a flow rate of 30 μL/min for 2 minutes association and at least 5 minutes of dissociation time. A 2- or 3-fold dilution series containing at least 4 concentrations were tested for each compound. The dose range was selected based on the activity of the compounds in biochemical assays, when available. Multiple blank injections of running buffer were run before and after each compound series to allow blank subtraction for compound data in the analysis software. Positive controls were run in each experiment to monitor and maintain the activity of HbS on the surface. A DMSO curve was run at the beginning of each data set to apply an excluded volume correction to the data during analysis. The data were processed and analyzed using Sierra Sensors and Scrubber 2.0 software. The binding affinities (dissociation constant Kd) were calculated by fitting the sensorgrams to a 1:1 binding model.

The term IC50 denotes the concentration that gives 50% inhibition. Low values mean greater potency in that assay, high ones weaker potency in that assay. As a reminder, the Kd is the equilibrium constant for the complex coming apart. Read a low Kd as tighter binding. `C[C@H](Oc1cc2cc(C(N)=O)c(F)cc2nc1N)c1ncc(F)cc1-n1cccn1` [Example 34, 2-amino-7-fluoro-3-{(1S)-1-[5-fluoro-3-(1H-pyrazol-1-yl)pyridin-2-yl]ethoxy}quinoline-6-carboxamide]: half-maximal inhibition in assay [1] (IC50) required 5.53 µM. The molecule also registered a Kd in assay [2] of 0.121 µM.
On to `C[C@H](Oc1cc2cc(F)ccc2nc1N)c1cc(-c2noc(=O)[nH]2)ccc1-n1cccn1` [Example 17, 3-[3-{(1S)-1-[(2-amino-6-fluoroquinolin-3-yl)oxy]ethyl}-4-(1H-pyrazol-1-yl)phenyl]-1,2,4-oxadiazol-5(4H)-one], for which the half-inhibitory concentration (IC50) in assay [1] came to 5.05 µM. The molecule also had a Kd in assay [2] of 0.014 µM.
Taken in the same sequence, the figures for `Cc1ccc2nc(N)c(O[C@@H](C)c3nc(O)ccc3-n3cccn3)cc2n1` [Example 54, 6-{(1S)-1-[(2-amino-6-methyl-1,5-naphthyridin-3-yl)oxy]ethyl}-5-(1H-pyrazol-1-yl)pyridin-2-ol] were 11.2 µM and 0.892 µM.
Taken in the same sequence, the figures for `C[C@H](Oc1cc2cc(C(N)=O)ccc2nc1N)c1nc(OCCO)ccc1-n1cccn1` [Example 42, 2-amino-3-{(1S)-1-[6-(2-hydroxyethoxy)-3-(1H-pyrazol-1-yl)pyridin-2-yl]ethoxy}quinoline-6-carboxamide] were 5.26 µM and 0.142 µM.
Turning to `C[C@H](Oc1cc2cc(C(C)(C)O)ccc2nc1N)c1nc(O)ccc1-n1cccn1` [Example 50, 6-[(1S)-1-{[2-amino-6-(2-hydroxypropan-2-yl)quinolin-3-yl]oxy}ethyl]-5-(1H-pyrazol-1-yl)pyridin-2-ol], the IC50 in assay [1] came to 100 µM. The dissociation constant Kd in assay [2] was 1.33 µM.
The matching figures for `C[C@H](Oc1cc2cc(Br)ccc2nc1N)c1ncccc1-n1cccn1` [Example 28, 6-bromo-3-{(1S)-1-[3-(1H-pyrazol-1-yl)pyridin-2-yl]ethoxy}quinolin-2-amine]: 6.56 µM and 0.157 µM.
`C[C@H](Oc1cc2cc(CO)ccc2nc1N)c1nc(O)ccc1-n1cccn1` [Example 49, 6-[(1S)-1-{[2-amino-6-(hydroxymethyl)quinolin-3-yl]oxy}ethyl]-5-(1H-pyrazol-1-yl)pyridin-2-ol]: half-maximal inhibition in assay [1] (IC50) required 6.39 µM. This molecule returned a Kd in assay [2] of 0.178 µM.
With `C[C@H](Oc1cc2cc(F)ccc2nc1N)c1cc(C(=O)NCCO)ccc1-n1cccn1` [Example 12, 3-{(1S)-1-[(2-amino-6-fluoroquinolin-3-yl)oxy]ethyl}-N-(2-hydroxyethyl)-4-(1H-pyrazol-1-yl)benzamide], in assay [1], the half-maximal inhibitory concentration (IC50) stood at 4.48 µM. Also, in assay [2], the affinity, expressed as Kd, was 0.038 µM.
Take `C[C@H](Oc1cc2cc(F)ccc2nc1N)c1nc(OCCO)ccc1-n1cccn1` [Example 41, 2-{[6-{(1S)-1-[(2-amino-6-fluoroquinolin-3-yl)oxy]ethyl}-5-(1H-pyrazol-1-yl)pyridin-2-yl]oxy}ethanol]: the half-inhibitory concentration (IC50) in assay [1] was 3.83 µM. Binding in assay [2] was put at a Kd of 0.044 µM.
Taken in the same sequence, the figures for `C[C@H](Oc1cc2cc(Br)ccc2nc1N)c1ncc(F)cc1-n1cccn1` [Example 25, 6-bromo-3-{(1S)-1-[5-fluoro-3-(1H-pyrazol-1-yl)pyridin-2-yl]ethoxy}quinolin-2-amine] were 4.78 µM and 0.067 µM.
Taken in the same sequence, the figures for `C[C@H](Oc1cc2cc(F)cc(F)c2nc1N)c1cc(C(=O)O)c(F)cc1-n1cccn1` [Example 23, 5-{(1S)-1-[(2-amino-6,8-difluoroquinolin-3-yl)oxy]ethyl}-2-fluoro-4-(1H-pyrazol-1-yl)benzoic Acid] were 4.01 µM and 0.043 µM.
The matching figures for `C[C@H](O)c1ccc2nc(N)c(O[C@@H](C)c3nc(O)ccc3-n3cccn3)cc2c1` [Example 52, 6-[(1S)-1-({2-amino-6-[(1S)-1-hydroxyethyl]quinolin-3-yl}oxy)ethyl]-5-(1H-pyrazol-1-yl)pyridin-2-ol]: 100 µM and 10 µM.

Source of the values: patent US11014908B2, “Chemical compounds” (Pfizer Inc., priority 2018, dated 2021).
